Source: US9200260B2, “Compositions and methods for the transfer of a hexosamine to a modified nucleotide in a nucleic acid” (New England Biolabs, Inc., priority 2012, dated 2015)

Experiments:
wild-type BGT [1] = molecular target: T1, wild-type BGT (Enterobacteria phage T4, UniProt P04547); settings: cited from earlier work
[2] = molecular target: T2, wild-type BGT (T4-β-glucosyltransferase) (Enterobacteria phage T4, UniProt P04547); test: Enzymatic transfer of UDP-sugars to BGT DNA by wild-type BGT (protection from MfeI cleavage, agarose gel); format: biochemical; settings: for UDP-Sugar concentration required for complete protection of BGT DNA from MfeI cleavage: enzyme BGT, 100 ng, 0.25 μg BGT DNA, 37° C. 1 h, >> incomplete protection at highest tested concentration, n.a. no activity
T2 construct: purchased New England Biolabs, Inc. (Ipswich, Mass.)
T2 sequence (P04547 1-351): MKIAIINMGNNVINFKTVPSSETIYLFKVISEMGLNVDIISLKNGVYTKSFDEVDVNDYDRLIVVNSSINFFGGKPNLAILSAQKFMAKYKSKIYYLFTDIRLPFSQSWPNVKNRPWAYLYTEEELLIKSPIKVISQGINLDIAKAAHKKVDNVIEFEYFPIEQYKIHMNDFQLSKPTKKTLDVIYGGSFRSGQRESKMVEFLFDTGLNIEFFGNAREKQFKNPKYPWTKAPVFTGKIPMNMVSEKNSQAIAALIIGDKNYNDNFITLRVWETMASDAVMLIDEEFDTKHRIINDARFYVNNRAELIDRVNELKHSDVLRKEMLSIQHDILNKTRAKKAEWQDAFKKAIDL
Method: (§1) After glycosylation, the glucosyltransferase was heat-inactivated by incubating for 10 minutes at 70° C. To analyze the enzyme-catalyzed transfer efficiency, samples were incubated with 1 μL (20 units) MfeI for 1 hour at 37° C. Reaction products were separated by agarose gel electrophoresis and stained with ethidium bromide to check for complete protection of BGT DNA against MfeI cleavage. […]
(§2) BGT DNA contains 5-hmC instead of cytosine and was produced from phage deficient in α- and β-glucosyltransferases. The degree of glycosylation of BGT DNA was determined by incubating the samples with the restriction endonuclease MfeI.
(§3) Top row: wild-type BGT; middle row: BGT/Y261L; bottom row: wild-type AGT. […] Then the glucosyltransferase was killed by heat at 70° C., and 1 μL (20 units) MfeI was added and incubated at 37° C. for 1 hour. The results were analyzed by agarose gel electrophoresis. Concentration values are given in mM.
(§4) Top row: wild-type BGT; middle row: BGT/Y261L; bottom row: wild-type AGT. […] Various concentrations of each substrate (as indicated) were incubated with 0.25 μg BGT DNA in the presence of 100 ng glucosyltransferase at 37° C. for 1 hour. Then the glucosyltransferase was killed by heat at 70° C. for 10 minutes, and 1 μL (20 units) MfeI was added and incubated at 37° C. for 1 hour. The results were analyzed by agarose gel electrophoresis. Concentration values are given in mM.

BGT/Y261L [3] = molecular target: T3, BGT/Y261L (Enterobacteria phage T4, UniProt P04547, Y261L); format: biochemical; set-up: purchased New England Biolabs, Inc. (Ipswich, Mass.); settings: for transfer efficiency by BGT/Y261L (in words): compared with natural UDP-Glc; for UDP-Sugar concentration required for complete protection of BGT DNA from MfeI cleavage: enzyme BGT/Y261L, 100 ng, 0.25 μg BGT DNA, 37° C. 1 h, >> incomplete protection at highest tested concentration, n.a. no activity
Method: as §1, §2, §3, §4

[4] = molecular target: T4, wild-type AGT (T4 phage α-glucosyltransferase) (Enterobacteria phage T4, UniProt P04519); test: Enzymatic transfer of UDP-sugars to BGT DNA by wild-type AGT (protection from MfeI cleavage, agarose gel); format: biochemical; settings: for UDP-Sugar concentration required for complete protection of BGT DNA from MfeI cleavage: enzyme AGT, 100 ng, 0.25 μg BGT DNA, 37° C. 1 h, >> incomplete protection at highest tested concentration, n.a. no activity
T4 construct: purchased New England Biolabs, Inc. (Ipswich, Mass.)
Method: After glycosylation, the glucosyltransferase was heat-inactivated by incubating for 10 minutes at 70° C. To analyze the enzyme-catalyzed transfer efficiency, samples were incubated with 1 μL (20 units) MfeI for 1 hour at 37° C. Reaction products were separated by agarose gel electrophoresis and stained with ethidium bromide to check for complete protection of BGT DNA against MfeI cleavage.
Nucleic Acids Res., 13, 7551-7568; Szwagierczak, A., Bultmann, S., Schmidt, C. […] Nucleic Acids Res., 38, e181].
as §2, §3, §4

AGT = AGT (Enterobacteria phage T4, UniProt P04519)
wild-type BGT [5] = molecular target: T1, wild-type BGT; settings: 0.02 to 10.0 mM in the presence of 40 μM UDP-Glc; UDP-Glc 0.02 to 20.0 mM in the presence of 5 mM compound
Method: (§5) After adding 100 ng of wild-type BGT or BGT/Y261L, the reaction mixtures were incubated at 37° C. for 1 hour in 1× NEBuffer 4. After glycosylation, the glucosyltransferase was heat-inactivated by incubating for 10 minutes at 70° C. […] Reaction products were separated by electrophoresis on agarose gel and stained with ethidium bromide.
(§6) Concentration values are given in mM.

BGT/Y261L [6] = molecular target: T3, BGT/Y261L; settings: 0.02 to 10.0 mM in the presence of 40 μM UDP-Glc; UDP-Glc 0.02 to 20.0 mM in the presence of 5 mM compound
Method: as §5, §6

T4 sequence (P04519 whole entry): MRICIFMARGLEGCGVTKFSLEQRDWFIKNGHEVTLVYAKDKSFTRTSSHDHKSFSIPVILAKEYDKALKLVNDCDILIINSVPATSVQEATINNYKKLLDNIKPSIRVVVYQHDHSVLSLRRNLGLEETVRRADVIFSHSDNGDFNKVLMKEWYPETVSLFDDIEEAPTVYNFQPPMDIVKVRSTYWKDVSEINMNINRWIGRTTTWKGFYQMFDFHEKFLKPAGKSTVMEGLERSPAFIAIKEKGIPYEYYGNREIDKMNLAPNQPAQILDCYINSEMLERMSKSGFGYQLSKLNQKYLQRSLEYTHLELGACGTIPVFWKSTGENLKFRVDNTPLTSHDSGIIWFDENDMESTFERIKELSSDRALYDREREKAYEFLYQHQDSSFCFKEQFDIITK
T3 sequence (P04547 whole entry Y261L): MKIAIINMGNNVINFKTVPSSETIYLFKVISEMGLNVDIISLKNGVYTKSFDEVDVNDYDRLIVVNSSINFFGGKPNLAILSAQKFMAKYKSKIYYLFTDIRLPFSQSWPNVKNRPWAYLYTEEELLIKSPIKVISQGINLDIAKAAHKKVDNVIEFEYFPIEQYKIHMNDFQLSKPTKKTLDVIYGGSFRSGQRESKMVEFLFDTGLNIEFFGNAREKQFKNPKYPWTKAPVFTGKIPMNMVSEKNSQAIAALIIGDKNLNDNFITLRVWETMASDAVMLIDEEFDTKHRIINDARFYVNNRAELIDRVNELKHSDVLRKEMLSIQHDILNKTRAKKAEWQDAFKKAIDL
Sequence of AGT (P04519 whole entry): as the sequence (P04519 whole entry) above

| Compound | UDP-Sugar concentration required for complete protection of BGT DNA from MfeI cleavage [2] | UDP-Sugar concentration required for complete protection of BGT DNA from MfeI cleavage (BGT/Y261L [3]) | UDP-Sugar concentration required for complete protection of BGT DNA from MfeI cleavage [4] | further results |
| --- | --- | --- | --- | --- |
| [N-]=[N+]=NCC1OC(OP(=O)(O)OP(=O)(O)OC[C@H]2O[C@@H](n3ccc(=O)[nH]c3=O)[C@H](O)[C@@H]2O)C(O)C(O)C1O (stereo partly shown) [Compound 1, UDP-6-Azido-Glc, reference compound] | 0.04 mM | >>1.0 mM |  | decrease in the reaction rate compared to the native UDP-Glc cofactor (wild-type BGT [1]): ~6 fold; transfer efficiency by BGT/Y261L (in words) (BGT/Y261L [3]): cannot efficiently transfer |
| N[C@H]1[C@@H](OP(=O)(O)OP(=O)(O)OC[C@H]2O[C@@H](n3ccc(=O)[nH]c3=O)[C@H](O)[C@@H]2O)O[C@H](CO)[C@@H](O)[C@@H]1O [Compound 4, UDP-2-glucosamine] | 0.03 mM | 0.03 mM | >>1.25 mM |  |
| O=C(O)[C@H]1O[C@H](OP(=O)(O)OP(=O)(O)OC[C@H]2O[C@@H](n3ccc(=O)[nH]c3=O)[C@H](O)[C@@H]2O)[C@H](O)[C@@H](O)[C@@H]1O [UDP-GlcUA, UDP-Glucuronic acid, reference compound] | 1.0 mM | >>10.0 mM | >>20.0 mM |  |
| NCC1OC(OP(=O)(O)OP(=O)(O)OC[C@H]2O[C@@H](n3ccc(=O)[nH]c3=O)[C@H](O)[C@@H]2O)C(O)C(O)C1O (stereo partly shown) [Compound 3, UDP-6-glucosamine] | 0.02 mM | 0.31 mM | >>5.0 mM | transfer efficiency by BGT/Y261L, lower than natural UDP-Glc (BGT/Y261L [3]; relative to natural UDP-Glc): about 15 fold |
| UDP-2-Keto-Glc [Compound 5] | >>4.0 mM | >>4.0 mM |  | transfer by BGT/Y261L at the highest tested concentration (BGT/Y261L [3]; 4 mM): not detected |
| CC(=O)N[C@H]1[C@@H](OP(=O)(O)OP(=O)(O)OC[C@H]2O[C@@H](n3ccc(=O)[nH]c3=O)[C@H](O)[C@@H]2O)O[C@H](CO)[C@@H](O)[C@@H]1O [UDP-GlcNAc, UDP-N-acetyl-D-glucosamine, reference compound] | 25 mM | 2.5 mM | >>20.0 mM | transfer by BGT/Y261L more efficient than by wild-type BGT (BGT/Y261L [3]; BGT/Y261L versus wild-type BGT): 10 fold; transfer efficiency by the Y261L enzyme, lower compared to UDP-2-GlcN 4 (BGT/Y261L [3]; relative to UDP-2-GlcN 4): approximately 100 fold |
| [N-]=[N+]=NC1C(OP(=O)(O)OP(=O)(O)OCC2OC(n3ccc(=O)[nH]c3=O)C(O)C2O)OC(CO)C(O)C1O (stereo not shown) [Compound 2, UDP-2-Azido-Glc] |  |  |  | inhibition of AGT (in words) (AGT): not for AGT; transfer efficiency by wild-type BGT (in words) ([2]; compared with natural UDP-Glc): None of the three tested enzymes efficiently transferred; transfer efficiency by wild-type AGT (in words) [4]: None of the three tested enzymes efficiently transferred; transfer efficiency by BGT/Y261L (in words) (BGT/Y261L [3]): None of the three tested enzymes efficiently transferred; inhibition of wild-type BGT (mode, in words) (wild-type BGT [5]): competitive inhibitor; inhibition of BGT/Y261L (mode, in words) (BGT/Y261L [6]): competitive inhibitor |
